Data: DBAASP
≈ marks a conversion by molar mass, not a printed value. Values belong to the compound of their own block, whether it stands above or below them.

What was measured:
Test in all cases: ≥ marks a high value that may be exact or a test limit, other limits are often not marked, values filed in µg/mL are converted to µM
[1] = system: Bacillus subtilis
[2] = system: Candida albicans F7-39/IDE99
[3] = system: Escherichia coli B
[4] = system: Pseudomonas aeruginosa
[5] = system: Staphylococcus aureus
[6] = system: Escherichia coli ATCC 8739
[7] = system: Staphylococcus aureus ATCC 25923
[8] = system: Streptococcus mutans
[9] = system: Escherichia coli ATCC 25922
[10] = system: Klebsiella pneumoniae ATCC 13883
[11] = system: Pseudomonas aeruginosa PAO1
[12] = system: Staphylococcus aureus USA 300
[13] = system: Enterococcus faecalis ATCC 29212
[14] = system: Salmonella enterica subsp. enterica serovar Pullorum C79-13
[15] = system: Salmonella enterica subsp. enterica serovar Typhimurium C77-31
[16] = system: Staphylococcus aureus ATCC 29213
[17] = system: Staphylococcus epidermidis ATCC 12228
[18] = system: Bacillus subtilis ATCC 23857
[19] = system: Escherichia coli ML-35

Compound: CSCC[C@H](N)C(=O)N[C@@H](C)C(=O)N[C@@H](CCCN=C(N)N)C(=O)N[C@@H](CC(N)=O)C(=O)N[C@@H](CCCCN)C(=O)N1CCC[C@H]1C(=O)N[C@@H](CC(C)C)C(=O)NCC(=O)N[C@@H](CCCCN)C(=O)N[C@@H](CCCCN)C(=O)N[C@@H](CC(C)C)C(=O)N[C@@H](CCCN=C(N)N)C(=O)N[C@@H](CC(C)C)C(=O)N[C@@H](C)C(=O)N[C@@H](C)C(=O)N[C@@H](C)C(=O)N[C@@H](Cc1ccccc1)C(=O)N[C@@H](CCCCN)C(=O)O [MARNKPLGKKLRLAAAFK]
MIC [6]: ≥ 127 µM
MIC [7]: > 127 µM

Compound: CC[C@H](C)[C@H](NC(=O)[C@H](CC(N)=O)NC(=O)[C@H](CCCCN)NC(=O)[C@H](CC(C)C)NC(=O)[C@H](CCC(N)=O)NC(=O)[C@H](CCC(N)=O)NC(=O)[C@@H](NC(=O)[C@H](CC(C)C)NC(=O)[C@@H](N)CCCCN)C(C)C)C(=O)N[C@@H](Cc1ccccc1)C(=O)N[C@@H](CCCN=C(N)N)C(=O)O [KLVQQLKNIFR]
MIC [8]: ≥ 90.1 µM

Compound: CC(C)C[C@H](NC(=O)[C@H](CC(C)C)NC(=O)CNC(=O)[C@H](CC(C)C)NC(=O)[C@H](CC(C)C)NC(=O)[C@H](CO)NC(=O)[C@H](CC(C)C)NC(=O)[C@H](CC(C)C)NC(=O)[C@H](CO)NC(=O)[C@H](CC(C)C)NC(=O)[C@H](CC(C)C)NC(=O)[C@H](CCCCN)NC(=O)CN)C(N)=O [GKLLSLLSLLGLL]
MIC [9]: > 25 µM
MIC [10]: 25 µM (≈ 33.5 µg/mL)
MIC [11]: > 25 µM
MIC [12]: 3.1 µM (≈ 4.15 µg/mL)

Compound: CC(C)C[C@H](NC(=O)[C@H](C)NC(=O)[C@H](Cc1cnc[nH]1)NC(=O)[C@H](CC(C)C)NC(=O)[C@H](CC(C)C)NC(=O)[C@H](Cc1cnc[nH]1)NC(=O)[C@@H](NC(=O)[C@H](C)N)[C@@H](C)O)C(=O)N[C@@H](CCC(N)=O)C(=O)N[C@@H](CCCN=C(N)N)C(=O)N[C@@H](Cc1ccccc1)C(N)=O [ATHLLHALQRF]
MIC [8]: ≥ 191 µM

Compound: CC(C)C[C@H](NC(=O)[C@H](CC(C)C)NC(=O)[C@H](CCCCN)NC(=O)[C@H](CC(C)C)NC(=O)[C@H](CC(C)C)NC(=O)[C@H](CCCCN)NC(=O)[C@H](CCCCN)NC(=O)[C@H](CC(C)C)NC(=O)[C@H](CC(C)C)NC(=O)[C@H](CCCCN)NC(=O)[C@@H](N)CC(C)C)C(=O)N[C@@H](CCCCN)C(=O)N[C@@H](CCCCN)C(=O)N[C@@H](Cc1ccccc1)C(N)=O [LKLLKKLLKLLKKF]
MIC [8]: 4.63 µM (≈ 8 µg/mL)

Compound: NC(N)=NCCC[C@H](NC(=O)[C@H](CCCN=C(N)N)NC(=O)[C@H](Cc1c[nH]c2ccccc12)NC(=O)[C@H](Cc1c[nH]c2ccccc12)NC(=O)[C@H](CCCN=C(N)N)NC(=O)[C@@H](N)CCCN=C(N)N)C(=O)N[C@@H](Cc1c[nH]c2ccccc12)C(=O)O [RRWWRRW]
MIC [8]: 13.3 µM (≈ 16 µg/mL)

Compound: CC[C@H](C)[C@H](N)C(=O)N[C@@H](CC(C)C)C(=O)NCC(=O)N[C@H](C(=O)N[C@H](C(=O)N[C@@H](CC(C)C)C(=O)N1CCC[C@H]1C(=O)N[C@@H](CC(C)C)C(=O)N[C@@H](CC(C)C)C(=O)N[C@@H](CCCCN)C(=O)NCC(=O)N[C@@H](CC(C)C)C(N)=O)[C@@H](C)CC)[C@@H](C)O [ILGTILPLLKGL]
MIC [18]: ≥ 256 µM
MIC [9]: > 256 µM
MIC [19]: ≥ 256 µM
MIC [16]: > 256 µM
MIC [17]: > 256 µM

Compound: CSCC[C@H](N)C(=O)N[C@@H](CCCCN)C(=O)N[C@@H](CCCCN)C(=O)N[C@@H](CC(C)C)C(=O)N[C@@H](Cc1ccccc1)C(=O)N[C@@H](C)C(=O)N[C@@H](C)C(=O)N[C@@H](CC(C)C)C(=O)N[C@@H](C)C(=O)N[C@@H](CC(C)C)C(=O)N[C@@H](C)C(=O)N[C@@H](C)C(=O)N[C@H](C(=O)N[C@H](C(=O)N[C@@H](C)C(=O)N1CCC[C@H]1C(=O)N[C@H](C(=O)N[C@@H](Cc1c[nH]c2ccccc12)C(=O)O)C(C)C)C(C)C)C(C)C [MKKLFAALALAAVVAPVW]
MIC [6]: ≥ 135 µM
MIC [7]: > 135 µM

Results, then the compound that gave them:

MIC [1]: 12 µM (≈ 33.2 µg/mL)
MIC [2]: ≥ 100 µM
MIC [3]: ≥ 100 µM
MIC [4]: > 100 µM
MIC [5]: > 100 µM
Compound: CC[C@H](C)[C@H](NC(=O)[C@H](C)NC(=O)[C@H](C)NC(=O)[C@H](CC(C)C)NC(=O)[C@@H](NC(=O)[C@H](CCCCN)NC(=O)[C@H](CCCNC(=N)N)NC(=O)[C@@H]1CCCN1C(=O)[C@H](CC(C)C)NC(=O)CN)[C@@H](C)CC)C(=O)N[C@@H](C)C(=O)N[C@@H](CCCCN)C(=O)N[C@@H](CCCCN)C(=O)N[C@@H](CCCCN)C(=O)NCC(=O)N[C@@H](CCCCN)C(=O)N[C@@H](C)C(=O)N[C@@H](CCCCN)C(=O)NCC(=O)N1CCC[C@H]1C(=O)N[C@@H](CC(C)C)C(=O)N[C@@H](CCCCN)C(=O)N[C@@H](CC(C)C)C(=O)N[C@H](C(=O)N[C@@H](C)C(=O)N[C@@H](CCCCN)C(=O)N[C@@H](C)C(=O)O)C(C)C [GLPRKILAAIAKKKGKAKGPLKLVAKA]

MIC [8]: ≥ 81.2 µM
Compound: CC(C)C[C@H](NC(=O)[C@H](Cc1cnc[nH]1)NC(=O)[C@H](CCC(N)=O)NC(=O)[C@H](Cc1c[nH]c2ccccc12)NC(=O)[C@@H](NC(=O)[C@H](CCC(N)=O)NC(=O)[C@H](Cc1ccccc1)NC(=O)[C@H](CC(C)C)NC(=O)[C@@H](N)Cc1ccc(O)cc1)[C@@H](C)O)C(=O)N[C@@H](Cc1ccccc1)C(=O)N[C@@H](CCCN=C(N)N)C(=O)O [YLFQTWQHLFR]

MIC [1]: 4 µM (≈ 11.6 µg/mL)
MIC [2]: ≥ 100 µM
MIC [3]: ≥ 100 µM
MIC [4]: > 100 µM
MIC [5]: > 100 µM
Compound: CC[C@H](C)[C@@H]1NC(=O)[C@H](C)NC(=O)[C@@H](NC(=O)[C@H](CC(C)C)NC(=O)[C@@H](NC(=O)[C@H](CCCCN)NC(=O)[C@H](CCCN=C(N)N)NC(=O)[C@@H]2CCCN2C(=O)[C@H](CC(C)C)NC(=O)CN)[C@@H](C)CC)CSSC[C@@H](C(=O)N[C@@H](CCCCN)C(=O)NCC(=O)N2CCC[C@H]2C(=O)N[C@@H](CC(C)C)C(=O)N[C@@H](CCCCN)C(=O)N[C@@H](CC(C)C)C(=O)N[C@H](C(=O)N[C@H]2CSSC[C@@H](C(=O)O)NC(=O)[C@H](CCCCN)NC2=O)C(C)C)NC(=O)[C@H](CCCCN)NC(=O)CNC(=O)[C@H](CCCCN)NC(=O)[C@H](CCCCN)NC(=O)[C@H](CCCCN)NC(=O)[C@H](C)NC1=O [GLPRKILCAIAKKKGKCKGPLKLVCKC]

MIC [6]: ≥ 114 µM
MIC [7]: > 114 µM
Compound: CC(C)C[C@H](NC(=O)[C@H](CCCCN)NC(=O)[C@H](CCCCN)NC(=O)[C@H](CCCN=C(N)N)NC(=O)[C@H](CCCN=C(N)N)NC(=O)[C@H](CO)NC(=O)[C@H](CCC(N)=O)NC(=O)[C@H](Cc1ccc(O)cc1)NC(=O)[C@H](Cc1ccccc1)NC(=O)[C@H](CCC(N)=O)NC(=O)[C@H](CO)NC(=O)[C@H](CCC(=O)O)NC(=O)[C@H](CCCN=C(N)N)NC(=O)[C@@H](N)CC(N)=O)C(=O)N[C@@H](CO)C(=O)N[C@@H](CO)C(=O)N[C@@H](CCC(N)=O)C(=O)N[C@H](C(=O)O)C(C)C [NRESQFYQSRRKKLSSQV]

MIC [9]: > 25 µM
MIC [10]: 25 µM (≈ 32.4 µg/mL)
MIC [11]: > 25 µM
MIC [12]: 0.78 µM (≈ 1.01 µg/mL)
Compound: CC(C)C[C@H](NC(=O)[C@H](CC(C)C)NC(=O)[C@H](CCCCN)NC(=O)CNC(=O)[C@H](CC(C)C)NC(=O)[C@H](CC(C)C)NC(=O)[C@H](CO)NC(=O)[C@H](CC(C)C)NC(=O)[C@H](CC(C)C)NC(=O)[C@H](CO)NC(=O)[C@H](C)NC(=O)[C@H](CC(C)C)NC(=O)CN)C(N)=O [GLASLLSLLGKLL]

MIC [8]: ≥ 53.8 µM
Compound: NC(N)=NCCC[C@H](NC(=O)[C@H](Cc1c[nH]c2ccccc12)NC(=O)[C@H](Cc1c[nH]c2ccccc12)NC(=O)[C@H](Cc1ccccc1)NC(=O)[C@H](CCCN=C(N)N)NC(=O)[C@H](CCCN=C(N)N)NC(=O)[C@@H](N)CCCN=C(N)N)C(=O)O [RRRFWWR]

MIC [9]: 3.1 µM (≈ 4.02 µg/mL)
MIC [10]: 3.1 µM (≈ 4.02 µg/mL)
MIC [11]: 12.5 µM (≈ 16.2 µg/mL)
MIC [12]: 0.78 µM (≈ 1.01 µg/mL)
Compound: CC(C)C[C@H](NC(=O)[C@H](CC(C)C)NC(=O)[C@H](CCCCN)NC(=O)CNC(=O)[C@H](C)NC(=O)[C@H](CC(C)C)NC(=O)[C@H](CO)NC(=O)[C@H](CC(C)C)NC(=O)[C@H](CC(C)C)NC(=O)[C@H](CO)NC(=O)[C@H](CC(C)C)NC(=O)[C@H](CC(C)C)NC(=O)CN)C(N)=O [GLLSLLSLAGKLL]

MIC [13]: > 128 µM
MIC [9]: > 128 µM
MIC [14]: ≥ 128 µM
MIC [15]: ≥ 128 µM
MIC [16]: > 128 µM
MIC [17]: > 128 µM
Compound: CC(C)C[C@H](NC(=O)[C@@H](NC(=O)[C@@H](NC(=O)[C@@H](N)CC(C)C)C(C)C)[C@@H](C)O)C(=O)N[C@H](C(=O)N[C@@H](Cc1ccccc1)C(=O)N[C@H](C(=O)O)C(C)C)C(C)C [LVTLVFV]
